Results: patent US11357774B2, “Use of a quinoline sulfonyl compound for treatment of inflammation, inflammatory disorders, autoimmune disorders and malaria” (priority 2019, dated 2022)

Key:
[1] = system: cancer over non-cancer cells; details: in vitro studies; cited from earlier work
[2] = system: CQ-resistant P. falciparum ItG; assay: Anti-parasitic assay (SYBR Green I), ItG strain; assay type: cell-based; details: Plasmodium falciparum, 48 h
Experimental: The CQ-resistant P. falciparum ItG and the CQ-sensitive 3D7 strains were maintained and assays carried out as described previously^25. Briefly, P. falciparum strains were maintained in RPMI 1640 culture medium supplemented with 10% human serum, 25 mM HEPES, gentamicin, and 50 μM of hypoxanthine. The anti-parasitic assay was carried out as described previously^25. Briefly, a compound gradient was generated across a 96-well assay plate; a constant number of parasites added in 50 μL of the culture medium; allowed to grow for 48 hours; and followed by the measurement of DNA amounts (i.e., fluorescence) using SYBR Green I. The IC50 value is the 50% point between alive and dead for which a three-parameter fit was used.
VR23 is a derivative of CQ; a well-known anti-malarial drug. […] ItG and […] P. falciparum strains are CQ-resistant and CQ-sensitive strains, respectively. IC50 values were calculated by S.E.M (Table 2).

[3] = system: IL-6 secretion in HFLS-N cells; assay: IL-6 secretion in stimulated HFLS-N cells (ELISA); assay type: cell-based, human; details: 6 hours
Experimental: The mean±SEM (n=3) values were determined by a Dunnett's test.
(§1) The values presented are the mean±SEM (n=2).
(§2) The enzyme-linked immunosorbent assay (ELISA) is a quantitative measurement based on sandwich-based enzyme linking, using a protein-specific capture antibody to determine the levels of single or multiple chemokines and cytokines.
This finding was extended to human cells relevant to autoimmune diseases. Human fibroblast-like synoviocytes (HFLS) are present in the synovial fluid of joint capsules and produce harmful molecules that contribute to joint destruction and the exacerbation of the disease in rheumatoid arthritis patients. […] The cells were then stimulated with IL-1β (FIG. 16) or LPS (FIG. 17), in the absence (control; IL-1β only) or presence of VR23 or HCQ. HCQ was included for comparison because it is often used to treat rheumatoid arthritis. […] For “VR23 only” samples, 5 μM VR23 was used. Fifty thousand HFLS cells per mL were used for the experiment. Cytokine levels in cell culture supernatants were determined by a single-analyte ELISA. […] Fifty thousand HFLS cells per mL were used for the experiment. The cytokine secretion was measured in cell culture supernatants by a single-analyte ELISA.

[4] = system: IL-8 secretion in THP-1 cells; assay: IL-8 secretion in TNF-α-stimulated THP-1 cells (ELISA); assay type: cell-based, human; details: THP-1, TNF-α 10 ng/mL, 6 hours
Experimental: For comparison, BTZ (6 nM), CFZ (1 nM), and DEX (2 μM) were also included. *** is p<0.001, which denotes a significant difference from the TNF-α-only group, determined by a Dunnett's test. The values presented are the mean±SEM (n=3).
as §2
The data in FIG. 12 show the levels of IL-8 secreted in the THP-1 culture medium in response to TNF-α alone (10 ng/mL) or in combination with varying concentrations (0.5, 1.0, 2, 4 or 6 μM) of VR23. For comparison, BTZ (6 nM), CFZ (1 nM) and DEX (2 μM) were also included. The measurement time was 6-hour post-stimulation. The measurement was carried out with a single-analyte ELISA.

[5] = system: IL-6 and TNF-α secretion in human PBMC; assay: IL-6 and TNF-α in PHA-p-stimulated human PBMC (ELISA); assay type: cell-based; details: PHA-p 10 μg/mL, 6 hours
Experimental: as §1, §2
Data in FIG. 14 show the levels of IL-6 (upper plot) and TNF-α (lower plot) in human PBMC (1×10^6/mL cells) stimulated with 10 μg/mL phytohemagglutinin-p (PHA-p) (10 μg/mL) for 6 hours, in the absence (control) or presence of varying concentrations of VR23 (0.38, 0.75, 1.5, 3 or 6 μM) or BTZ (6.25, 12.5, 25 or 50 nM). The measurement was carried out with a single-analyte ELISA.

[6] = system: mouse lung tissues with ALI caused by LPS; assay: Histopathological analysis of lung tissues of mice with LPS-induced ALI; assay type: in vivo; details: LPS 0.4 mg/kg, 24 hours, VR23 30 mg/kg, DEX 4 mg/kg
Experimental: Six to eight week old female BALB/c mice strain 028 (Charles River Laboratories, QC, Canada) were fed regularly with laboratory chow and water upon arrival at the Laurentian University Animal Care Facility (Sudbury, ON, Canada). To determine a useful dose of LPS, three mice per group were treated for 24 hours with the following three different conditions: (i) no LPS, (ii) 0.25 mg of LPS per kg of body weight, and (iii) 0.50 mg of LPS per kg of body weight. The different concentrations of LPS were administered intranasally to the three BALB/c mice per concentration. After the animals were sacrificed, the bronchoalveolar lavage fluid (BALF) of each mouse was collected and analyzed for LPS-induced inflammatory responses. […] Experimental design involving the use of VR23 was based on a previous acute lung injury (ALI) instillation by Wei and Huang^26. Briefly, mice were divided into 5 groups, with 3-5 mice per group: no lung injury (i.e., no treat), sham treated, LPS-only, LPS+DEX, and LPS+VR23. […] Bronchoalveolar lavage fluid was collected and the number of cells infiltrated into the bronchoalveolar fluid were counted (FIG. 2). […]
At 24-hour post-induction of lung injury with LPS, lung tissues were embedded in the paraffin block, followed by slicing them into 10 μm sections using a microtome. […] For microscopy, at least 10 fields were analyzed for each sample. […]

SMILES: O=[N+]([O-])c1ccc(S(=O)(=O)N2CCN(c3ccnc4cc(Cl)ccc34)CC2)c([N+](=O)[O-])c1 [VR23, 7-chloro-4-(4-(2,4-dinitrophenylsulfonyl)piperazin-1-yl)quinoline]
- selectivity of cell killing [1]: preferentially kills cancer over non-cancer cells
- IC50 [2]: 117 nM
- IL-6 secretion, dose dependence ([3]; IL-1β 10 ng/mL, VR23 2.5-10 μM, HCQ 15 or 30 μM): decreases in a dose dependent manner
- secretion of IL-6 ([3]; LPS 100 ng/mL): rate of the decrease is much lower
- level of IL-8 ([4]; 0.5 μM): significantly (p<0.001) reduced the level of IL-8
- IL-8 secretion ([4]; VR23 at IC50 concentration (between 2 and 4 μM), BTZ 6 nM, CFZ 1 nM): effectively reduces IL-8 secretion
- PHA-induced IL-6 ([5]; VR23 1.5 μM, BTZ 6 nM): completely prevented
- PHA-induced TNF-α ([5]; VR23 3.0 μM, BTZ 4× the IC50 dose): completely prevented
- cytokine secretion (IL-6, TNF-α), dose dependence ([5]; VR23 0.38-6 μM): decreases in a dose dependent manner
- alveolar inflammation caused by LPS (H & E histopathology) [6]: largely prevented
